Where a name gives a salt, the structure may show the parent alone.
What was measured:
Type in all cases: physicochemical
[1] = Storage stability of Formulations 8, 9 and 10, related substances
Experimental: An aliquot of each of Formulation 8, 9, and 10 was subjected to stability testing. In particular, an amount of each formulation sufficient to provide 14.3 mg of Compound 2 was transferred to a glass vial and then the vial was capped. The glass vials were stored at (a) 40° C./NMT 25% relative humidity or (b) 40° C./75% relative humidity. Samples were analyzed to determine the amount of related substances in the formulation.
(§1) Table 2 presents results for samples stored at 40° C./25% relative humidity. Table 3 presents results for samples stored at 40° C./75% relative humidity.

[2] = Storage stability of Formulations 1 to 4, related substances by HPLC; settings: 40° C./75% relative humidity, capped glass vials
Experimental: An aliquot of each of Formulation 1, 2, 3, and 4 was subjected to stability testing. In particular, an amount of each formulation sufficient to provide 11.4 mg of Compound 1 was transferred to glass vials and then the vials were capped. The glass vials were stored at 40° C./75% relative humidity for three to six weeks. Samples were analyzed by HPLC to determine the amount of related substances in the formulation.

[3] = Storage stability of Formulations 5, 6 and 7, related substances by HPLC
Experimental: An aliquot of each of Formulation 5, 6, and 7 was subjected to stability testing. In particular, an amount of each formulation sufficient to provide 11.4 mg of Compound 1 was transferred to a glass vial bottle and then the bottle was capped. The glass vials were stored at (a) 40° C./NMT 25% relative humidity or (b) 40° C./75% relative humidity. Samples were analyzed by HPLC to determine the amount of related substances in the formulation.
as §1

[4] = 40° C./25% (NMT 25%) relative humidity

Row | SMILES | Percentage of Related Substances in the Formulation (% as determined by HPLC), 2 Weeks Storage [1, 4] [%] | Percentage of Related Substances in the Formulation (% as determined by HPLC), 4 Weeks Storage [1, 4] [%] | Percentage of Related Substances in the Formulation (% as determined by HPLC), 6 Weeks Storage [1, 4] [%] | Percentage of Related Substances in the Formulation (% as determined by HPLC), 2 Weeks Storage ([1]; 40° C./75% relative humidity) [%] | Percentage of Related Substances in the Formulation (% as determined by HPLC), 4 Weeks Storage ([1]; 40° C./75% relative humidity) [%] | Percentage of Related Substances in the Formulation (% as determined by HPLC), 6 Weeks Storage ([1]; 40° C./75% relative humidity) [%] | Percentage of Related Substances in the Formulation (% as Determined by HPLC), 3 Weeks Storage ([2]; 3 weeks) [%] | Percentage of Related Substances in the Formulation (% as determined by HPLC), 6 Weeks Storage ([2]; 6 weeks) [%] | Percentage of Related Substances in the Formulation (% as determined by HPLC), 2 Weeks Storage [3, 4] [%] | Percentage of Related Substances in the Formulation (% as determined by HPLC), 4 Weeks Storage ([3]; 40° C./25% (NMT 25%) relative humidity, 4 weeks) [%] | Percentage of Related Substances in the Formulation (% as determined by HPLC), 2 Weeks Storage ([3]; 40° C./75% relative humidity) [%] | Percentage of Related Substances in the Formulation (% as determined by HPLC), 6 Weeks Storage ([3]; 40° C./75% relative humidity, 6 weeks) [%]
1 | COc1cc(F)c(-c2cc(Cn3cnc4c(N)ncnc43)c(N3CCC[C@](N)([C@H](O)C(F)F)C3)cn2)cc1F [Compound 2, (S)-1-((R)-3-amino-1-(4-((6-amino-9H-purin-9-yl)methyl)-6-(2,5-difluoro-4-methoxyphenyl)pyridin-3-yl)piperidin-3-yl)-2,2-difluoroethan-1-ol Fumarate] | 0.55 | 0.55 | 0.56 | 0.55 | 0.56 | 0.55 |  |  |  |  |  | 
2 | COc1cc(F)c(-c2cc(Cn3cnc4c(N)ncnc43)c(N3CCC[C@](N)([C@H](O)C(F)F)C3)cn2)cc1F [Compound 1, (S)-1-((R)-3-amino-1-(4-((6-amino-9H-purin-9-yl)methyl)-6-(2,5-difluoro-4-methoxyphenyl)pyridin-3-yl)piperidin-3-yl)-2,2-difluoroethan-1-ol D-Tartrate] |  |  |  |  |  |  | 0.42 | 0.41 | 0.56 | 0.57 | 0.57 | 0.57

From US20240207192A1, “PHARMACEUTICAL COMPOSITIONS CONTAINING A PIPERIDINYL-METHYL-PURINE AMINE AND THEIR USE IN TREATING DISEASES AND CONDITIONS” (K36 THERAPEUTICS, INC., priority 2022, published 2024)
